Measurements from US9045731B2, “Compositions and methods for improving the functional efficacy of stem cell-derived cardiomyocytes” (The Regents of the University of California, priority 2007, dated 2015).

Tests used:
[1] = test system: HES2-CMs; assay: Cytosolic Ca2+ transients (Fura-2/AM spectrofluorometry) in HES2-CMs; type: cell-based, human
Experimental: Briefly, HES2 cells were grown on mitomycin C- (Sigma; St Louis, Mo., USA) inactivated mouse embryonic fibroblasts (mEFs). Culture medium consisted of DMEM (Invitrogen, Carlsbad, Calif.) containing 2 mM L-glutamine, insulin-transferrin-selenium, non-essential amino acids, 90 μM β-mercaptoethanol, and 20% FBS (Hyclone, Logan, Utah). HES2 cells were passaged manually (“cut-and-paste”), by cutting colony into pieces and removing them from the mEFs using dispase (8 mg/mL, Invitrogen, Carlsbad, Calif.). For cardiac differentiation, HES2 cells were removed from the mEFs, resuspended and broken into pieces, followed by co-culturing with the immortalized endoderm-like END2 cells at 100% confluence (6).
(§1) For isolating hESC-CMs, beating outgrowths were microsurgically dissected from H1- (7+11 to 17 or 18-24 days) and HES2- (18-24 days) derived EBs by a glass knife, (4) followed by incubation in collagenase II (1 mg/mL) at 37° C. for 30 min. The isolated cells were incubated with KB solution containing (mM): 85 KCl, 30 K2HPO4, 5 MgSO4, 1 EGTA, 2 Na2-ATP, 5 pyruvic acid, 5 creatine, 20 taurine, 20 d-glucose, at room temperature for 30 min. After the cells were plated on laminin-coated glass coverslips for 1 hr at 37° C., regular culture media was added. […] Calcium recordings from cell clusters containing 10-15 cells were performed within 48 hrs after plating.
(§2) A spectrofluorometric method with Fura-2/AM as the Ca^2+ indicator was used for measuring [Ca^2+]i. FLV- or hESC-CMs were incubated with 5 μM Fura-2/AM and 0.2% pluronic F-127 for 30 min at 37° C. Fluorescent signals obtained upon excitation at 340 nm (F340) and 380 nm (F380) were recorded from cells perfused with Tyrode solution containing (mM): 140 NaCl, 5.0 KCl, 1.0 CaCl2, 1.0 MaCl2, 10.0 glucose and 10 HEPES (pH 7.4) unless otherwise indicated. Data were analyzed using the Ionwizard software (Version 5, IonOptix) to generate the Ca transient parameters reported in this study. The F340/F380 ratio was used to represent cytosolic [Ca^2+]i. To induce cytoplasmic Ca^2+ transients, CMs were stimulated by electrically pulsing from 0.1 to 0.5 Hz or by caffeine application as indicated. For electrical stimulations, Ca^2+ transients were recorded and analyzed after a series of depolarizations that enabled each transient to fully decay so as to establish a steady-state SR content.

[2] = test system: H1-CMs; assay: Cytosolic Ca2+ transients (Fura-2/AM) in adenovirus-transduced H1-CMs; type: cell-based, human; details: for Electrically evoked Ca2+ transient amplitude after ryanodine / Upstroke velocity of Ca2+ transients after ryanodine: 10 μM ryanodine, 30 minutes
Source text: Human cardiac calsequestrin 2 (sc119365, Origene technologies, MD) was cloned and ligated into adenovirus shuttle vectors pAdCMV-IRES-GFP using primers creating Bmt and Spe I sites (pAdCMV-CSQ-IRES-GFP). IRES, internal ribosomal entry site, allows the simultaneous translation of CSQ and the fluorescence marker (GFP) with a single transcript. The truncated CSQ mutant was constructed in pAdCMV-IRES-GFP by deleting 817 bp (53 bp-869 bp) using the two EcoN I sites inside CSQ's coding sequence (Ad-CSQΔ). The resulting product after Hind III cutting was self-ligated to produce another control of pAdCMV-GFP (Ad-GFP). Adenoviruses were generated by Cre-lox recombination of purified ψ5 viral DNA and shuttle vector DNA using Cre4 cells as described previously (56).
For isolating H1-CMs, beating outgrowths were microsurgically dissected from H1- derived EBs (7+14 to 7+21 days) by a glass knife, followed by incubation in collagenase II (1 mg/mL) at 37° C. for 30 min. The isolated cells were incubated with KB solution containing (mM): 85 KCl, 30 K2HPO4, 5 MgSO4, 1 EGTA, 2 Na2-ATP, 5 pyruvic acid, 5 creatine, 20 taurine, 20 d-glucose, at room temperature for 30 min. After the cells were plated on gelatin-coated glass coverslips for 1 hr at 37° C., regular culture media was added. After 48 hours, plated H1-CMs were infected with adenoviruses for 3 hours. Recordings were performed within 24-48 hrs after infection.
A spectrofluorometric method with Fura-2/AM as the Ca^2+ indicator was used for measuring [Ca^2+]i. H1-CMs were incubated with 10 μM Fura-2/AM and 0.2% pluronic F-127 for 30 min at 37° C. Fluorescent signals obtained upon excitation at 340 nm (F340) and 380 nm (F380) were recorded from cells perfused with Tyrode solution containing (mM): 140 NaCl, 5.0 KCl, 1.0 CaCl2, 1.0 MaCl2, 10.0 glucose and 10 HEPES (pH 7.4) unless otherwise indicated. Data were analyzed using the Ionwizard software (Version 5, IonOptix) to generate the Ca^2+ transient parameters reported in this study. The F340/F380 ratio was used to represent cytosolic [Ca^2+]i. To induce cytoplasmic Ca^2+ transients, CMs were stimulated by electrically pulsing from 0.1 to 0.5 Hz or by caffeine application as indicated.
For electrical stimulations, Ca^2+ transients were recorded and analyzed after a series of depolarizations that enabled each transient to fully decay so as to establish a steady-state SR content.

[3] = test system: H1-CMs; assay: Cytosolic Ca2+ transients (Fura-2/AM spectrofluorometry) in H1-CMs; type: cell-based, human
Experimental: H1 cells were grown on irradiated mEFs from 13.5-day embryos of CF-1 mice and propagated as previously described (3). The culture medium consisted of 80% Dulbecco's modified Eagle's medium, 20% knockout serum replacement, 4 ng/ml basic fibroblast growth factor, 1 mmol/L glutamine, 0.1 mmol/L β-mercaptoethanol, and 1% nonessential amino acid solution (all from Gibco-BRL, Gaithersburg, Md.). To induce the formation of embryoid bodies (EBs), hESCs were detached using 1 mg/mL type IV collagenase (Gibco-BRL) and transferred to Petri dishes containing 80% Dulbecco's modified Eagle's medium, 20% fetal bovine serum defined (HyClone, Logan, Utah), 1 mmol/L glutamine, and 1% nonessential amino acid stock in the absence of β-FGF. The aggregates were cultured in suspension for 7 days, followed by plating on gelatin-coated (0.1%; Sigma-Aldrich, St. Louis) 6-well plates to form hESC-CMs.
as §1, §2

[4] = test system: FLV-CMs; assay: Cytosolic Ca2+ transients (Fura-2/AM spectrofluorometry) in human fetal left ventricular CMs; type: cell-based; details: caffeine 10 mM, brief exposure, no Ca2+ in extracellular bath
Source text: Human FLV-CMs and adult-CMs were isolated and experimented according to protocols approved by the UC Davis IUPAC and IRB (Protocol #200614787-1 and # 200614594-1). Briefly, fetal human hearts (16-18 weeks, Advanced Bioscience Resources, INC. Alameda, Calif.) and adult human hearts (18+ years, National Disease Research Interchange, Philadelphia, Pa.) were perfused with enzymatic solutions using a customized Langendorff apparatus as previously described (19). […]
as §2, with “FLV- or hESC-CMs were incubated with 5 μM Fura-2/AM and 0.2% pluronic F-127 for 30 min at 37° C.” left out, “The F340/F380 ratio was used to represent cytosolic [Ca^2+]i. To induce cytoplasmic Ca^2+ transients, CMs were stimulated by electrically pulsing from 0.1 to 0.5 Hz or by caffeine application as indicated.” left out

[5] = test system: hESC-CMs; assay: Cytosolic Ca2+ transients (Fura-2/AM), HES2- and H1-CMs taken together; type: cell-based, human; details: for Effect on Vmax, upstroke of electrically evoked Ca2+ transients: 10 μM ryanodine, 30 min
Experimental: as §1, §2

## C/C=C(/C)C(=O)O[C@H]1C(C)=C2[C@H]([C@@H]1OC(=O)CCCCCCC)[C@@](C)(OC(C)=O)C[C@H](OC(=O)CCC)[C@@]1(O)[C@H]2OC(=O)[C@@]1(C)O [thapsigargin]
[1]; thapsigargin 0.5 μM, 15 min, HES2-CMs
  Effect on Vmax, decay of electrically evoked Ca2+ transients: significantly slowed
[1]; thapsigargin 0.5 μM, 15 min, caffeine-responsive HES2-CMs
  Effect on electrically evoked Ca2+ transient amplitude: significantly reduced
[2]; thapsigargin (0.5 μM), 15 min, H1-CMs transduced with Ad-CSQ
  Decay velocity of Ca2+ transients after thapsigargin: 61%
[2]; thapsigargin (0.5 μM), 15 min, H1-CMs transduced with Ad-CSQΔ
  Decay velocity of Ca2+ transients after thapsigargin: 65%
[2]; thapsigargin (0.5 μM), 15 min, H1-CMs transduced with Ad-GFP
  Decay velocity of Ca2+ transients after thapsigargin: 69%
[2]; thapsigargin (0.5 μM), 15 min, transduced H1-CMs (all three groups)
  Ca2+ transient amplitude after thapsigargin: unchanged
[3]; thapsigargin 0.5 μM, 15 min, H1-CMs
  Effect on Vmax, decay of electrically evoked Ca2+ transients: significantly slowed
[3]; thapsigargin 0.5 μM, 15 min, caffeine-responsive H1-CMs
  Effect on electrically evoked Ca2+ transient amplitude: significantly reduced

## Cn1c(=O)c2c(ncn2C)n(C)c1=O [caffeine]
[1]; caffeine 10 mM, brief exposure, no Ca2+ in extracellular bath, HES2-CMs
  Percentage of cells with caffeine-induced Ca2+ transients (caffeine-responsive cells): 40%
[2]; caffeine 10 mM, brief exposure, transduced H1-CMs
  Cytosolic Ca2+ response to caffeine: robust cytosolic Ca^2+ increase
[3]; caffeine 10 mM, brief exposure, no Ca2+ in extracellular bath, H1-CMs
  Percentage of cells with caffeine-induced Ca2+ transients (caffeine-responsive cells): 35%
[4]
  Percentage of cells with caffeine-induced rise in cytosolic Ca2+ (caffeine-responsive cells): 65%
[5]; hESC-CMs (HES2- and H1-CMs pooled)
  Percentage of cells with caffeine-induced large Ca2+ transients: ~38%

## ryanodine
[1]; 10 μM ryanodine, 30 min, caffeine-insensitive HES2-CMs
  Effect on electrically evoked Ca2+ transient amplitude: not affected
[1]; 10 μM ryanodine, 30 min, caffeine-responsive HES2-CMs
  Reduction of electrically evoked Ca2+ transient amplitude: 37±4.8%
[2]; H1-CMs transduced with Ad-CSQ
  Electrically evoked Ca2+ transient amplitude after ryanodine: 78%
  Upstroke velocity of Ca2+ transients after ryanodine: 67%
[2]; H1-CMs transduced with Ad-CSQΔ
  Electrically evoked Ca2+ transient amplitude after ryanodine: 84%
  Upstroke velocity of Ca2+ transients after ryanodine: 62%
[2]; H1-CMs transduced with Ad-GFP
  Electrically evoked Ca2+ transient amplitude after ryanodine: 80%
  Upstroke velocity of Ca2+ transients after ryanodine: 64%
[3]; 10 μM ryanodine, 30 min, caffeine-insensitive H1-CMs
  Effect on electrically evoked Ca2+ transient amplitude: not affected
[3]; 10 μM ryanodine, 30 min, caffeine-responsive H1-CMs
  Reduction of electrically evoked Ca2+ transient amplitude: 18±4.3%
[5]; caffeine-insensitive cells
  Effect on Vmax, upstroke of electrically evoked Ca2+ transients: not
[5]; caffeine-responsive cells
  Effect on Vmax, upstroke of electrically evoked Ca2+ transients: significantly slowed
